PubChem BioAssay AID1963873 (Molecular Pharmacology Branch, DTP, NCI, 2024)

Tested on: 276233-004-R-J1-PDC KRAS spheroids with HUVEC/MSC, viability
Assay: Anticancer human tumor 276233-004-R-J1-PDC patient-derived colon adenocarcinoma cell line growth inhibition [KRAS2]
Conditions: for IC50: curve of first compound; for viability, T/C: stronger effect = lower value; active means viability on the fitted dose curve at most 10% of control; inactive means the rest
Outline: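 Combination screen of spheroid viability in tumor-cell co-cultures with endothelial (HUVEC) and mesenchymal stem cell stroma. Each agent was tested in half-log dilutions, topping at clinical Cmax or at 10 microM without a known Cmax.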

[1] = second compound 0.1 µM, first compound 0.0316 µM
[2] = second compound 0.1 µM, first compound 0.1 µM
[3] = second compound 0.1 µM, first compound 0.316 µM
[4] = second compound 0.1 µM, first compound 1 µM
[5] = second compound 0.1 µM, first compound 3.16 µM
[6] = second compound 0.1 µM, first compound 10 µM
[7] = second compound 0.316 µM, first compound 0.0316 µM
[8] = second compound 0.316 µM, first compound 0.1 µM
[9] = second compound 0.316 µM, first compound 0.316 µM
[10] = second compound 0.316 µM, first compound 1 µM
[11] = second compound 0.316 µM, first compound 3.16 µM
[12] = second compound 0.316 µM, first compound 10 µM
[13] = second compound 1 µM, first compound 0.0316 µM
[14] = second compound 1 µM, first compound 0.1 µM
[15] = second compound 1 µM, first compound 0.316 µM
[16] = second compound 1 µM, first compound 1 µM
[17] = second compound 1 µM, first compound 3.16 µM
[18] = second compound 1 µM, first compound 10 µM
[19] = second compound 3.16 µM, first compound 0.0316 µM
[20] = second compound 3.16 µM, first compound 0.1 µM
[21] = second compound 3.16 µM, first compound 0.316 µM
[22] = second compound 3.16 µM, first compound 1 µM
[23] = second compound 3.16 µM, first compound 3.16 µM
[24] = second compound 3.16 µM, first compound 10 µM
[25] = second compound 10 µM, first compound 0.0316 µM
[26] = second compound 10 µM, first compound 0.1 µM
[27] = second compound 10 µM, first compound 0.316 µM
[28] = second compound 10 µM, first compound 1 µM
[29] = second compound 10 µM, first compound 3.16 µM
[30] = second compound 10 µM, first compound 10 µM
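Further: cells exposed to agents for seven days before viability read.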
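Wherever viability, T/C is given: 100% = DMSO vehicle control wells and lower values mean fewer viable cells.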

Cn1nccc1Nc1nccc(-c2cc3c(s2)C(C)(C)N(CCN2CCOCC2)C3=O)n1 + C=CC(=O)N1CCN(c2nc(=O)n(-c3c(C)ccnc3C(C)C)c3nc(-c4c(O)cccc4F)c(F)cc23)C(C)C1
inactive: viability, T/C [1] 106% | viability, T/C [2] 100% | viability, T/C [3] 83.1% | viability, T/C [4] 71.6% | viability, T/C [5] 69.9% | viability, T/C [6] 60.4% | viability, T/C [7] 114% | viability, T/C [8] 112% | viability, T/C [9] 101% | viability, T/C [10] 99.3% | viability, T/C [11] 66.2% | viability, T/C [12] 66.4% | viability, T/C [13] 132% | viability, T/C [14] 108% | viability, T/C [15] 83.1% | viability, T/C [16] 93.1% | viability, T/C [17] 67.6% | viability, T/C [18] 69.2% | viability, T/C [19] 97.1% | viability, T/C [20] 122% | viability, T/C [21] 93.1% | viability, T/C [22] 98.5% | viability, T/C [23] 72.2% | viability, T/C [24] 86.5% | viability, T/C [25] 89.5% | viability, T/C [26] 85.7% | viability, T/C [27] 85.2% | viability, T/C [28] 72.6% | viability, T/C [29] 82.2% | viability, T/C [30] 105%
> 10 µM: IC50 (second compound 0.1 µM) | IC50 (second compound 0.316 µM) | IC50 (second compound 1 µM) | IC50 (second compound 3.16 µM) | IC50 (second compound 10 µM)

COc1cc2nccc(Oc3ccc(NC(=O)C4(C(=O)Nc5ccc(F)cc5)CC4)cc3)c2cc1OC + C=CC(=O)N1CCN(c2nc(=O)n(-c3c(C)ccnc3C(C)C)c3nc(-c4c(O)cccc4F)c(F)cc23)C(C)C1
> 10 µM: IC50 (second compound 0.1 µM) | IC50 (second compound 0.316 µM) | IC50 (second compound 1 µM) | IC50 (second compound 3.16 µM) | IC50 (second compound 10 µM)
inactive: viability, T/C [1] 93.5% | viability, T/C [2] 109% | viability, T/C [3] 96% | viability, T/C [4] 84.7% | viability, T/C [5] 101% | viability, T/C [6] 104% | viability, T/C [7] 97.4% | viability, T/C [8] 112% | viability, T/C [9] 83.7% | viability, T/C [10] 91.3% | viability, T/C [11] 87.4% | viability, T/C [12] 76.3% | viability, T/C [13] 89.1% | viability, T/C [14] 91.2% | viability, T/C [15] 84.9% | viability, T/C [16] 72.1% | viability, T/C [17] 74.5% | viability, T/C [18] 75.1% | viability, T/C [19] 85.5% | viability, T/C [20] 79.8% | viability, T/C [21] 102% | viability, T/C [22] 76.7% | viability, T/C [23] 72.4% | viability, T/C [24] 114% | viability, T/C [25] 82.3% | viability, T/C [26] 74.9% | viability, T/C [27] 69.1% | viability, T/C [28] 81.8% | viability, T/C [29] 88.5% | viability, T/C [30] 76%

O=C(c1cc(Cc2n[nH]c(=O)c3ccccc23)ccc1F)N1CCN(C(=O)C2CC2)CC1 + CNCc1ccccc1-c1csc(C(C)Nc2nc(C)nc3cc(OC)c(OC)cc23)c1
inactive: viability, T/C [1] 98.5% | viability, T/C [2] 99.5% | viability, T/C [3] 84.5% | viability, T/C [4] 87.5% | viability, T/C [5] 110% | viability, T/C [6] 96.5% | viability, T/C [7] 103% | viability, T/C [8] 80.8% | viability, T/C [9] 90.3% | viability, T/C [10] 85.3% | viability, T/C [11] 84% | viability, T/C [12] 68.7% | viability, T/C [13] 99.2% | viability, T/C [14] 86.8% | viability, T/C [15] 88.5% | viability, T/C [16] 73.8% | viability, T/C [17] 87.1% | viability, T/C [18] 78.2%
> 10 µM: IC50 (second compound 0.1 µM) | IC50 (second compound 0.316 µM) | IC50 (second compound 1 µM)
< 0.0316 µM: IC50 (second compound 3.16 µM) | IC50 (second compound 10 µM)
active: viability, T/C [19] 5.86% | viability, T/C [20] 1.28% | viability, T/C [21] 0.99% | viability, T/C [22] 1.9% | viability, T/C [23] 1.8% | viability, T/C [24] 2.47% | viability, T/C [25] 3.64% | viability, T/C [26] 5.22% | viability, T/C [27] 3.94% | viability, T/C [28] 5.16% | viability, T/C [29] 0.77% | viability, T/C [30] 1.05%

Cn1ncnc1[C@H]1c2n[nH]c(=O)c3cc(F)cc(c23)N[C@@H]1c1ccc(F)cc1 + C=CC(=O)N1CCN(c2nc(OCC3CCCN3C)nc3c2CCN(c2cccc4cccc(C)c24)C3)CC1CC#N
> 0.1 µM: IC50 (second compound 0.0316 µM) | IC50 (second compound 0.1 µM) | IC50 (second compound 0.316 µM) | IC50 (second compound 1 µM) | IC50 (second compound 3.16 µM)
inactive: viability, T/C (second compound 0.0316 µM, first compound 0.000316 µM) 111% | viability, T/C (second compound 0.0316 µM, first compound 0.001 µM) 107% | viability, T/C (second compound 0.0316 µM, first compound 0.00316 µM) 88% | viability, T/C (second compound 0.0316 µM, first compound 0.01 µM) 119% | viability, T/C (second compound 0.0316 µM, first compound 0.0316 µM) 97.7% | viability, T/C (second compound 0.0316 µM, first compound 0.1 µM) 92.8% | viability, T/C (second compound 0.1 µM, first compound 0.000316 µM) 107% | viability, T/C (second compound 0.1 µM, first compound 0.001 µM) 113% | viability, T/C (second compound 0.1 µM, first compound 0.00316 µM) 103% | viability, T/C (second compound 0.1 µM, first compound 0.01 µM) 98% | viability, T/C [1] 77.3% | viability, T/C [2] 86.3% | viability, T/C (second compound 0.316 µM, first compound 0.000316 µM) 100% | viability, T/C (second compound 0.316 µM, first compound 0.001 µM) 107% | viability, T/C (second compound 0.316 µM, first compound 0.00316 µM) 113% | viability, T/C (second compound 0.316 µM, first compound 0.01 µM) 115% | viability, T/C [7] 85.5% | viability, T/C [8] 91.6% | viability, T/C (second compound 1 µM, first compound 0.000316 µM) 99% | viability, T/C (second compound 1 µM, first compound 0.001 µM) 118% | viability, T/C (second compound 1 µM, first compound 0.00316 µM) 105% | viability, T/C (second compound 1 µM, first compound 0.01 µM) 116% | viability, T/C [13] 88.9% | viability, T/C [14] 110% | viability, T/C (second compound 3.16 µM, first compound 0.000316 µM) 74.9% | viability, T/C (second compound 3.16 µM, first compound 0.001 µM) 77.6% | viability, T/C (second compound 3.16 µM, first compound 0.00316 µM) 57.1% | viability, T/C (second compound 3.16 µM, first compound 0.01 µM) 52.6% | viability, T/C [19] 65% | viability, T/C [20] 72%
